Structures can show the parent of a compound that is named as a salt.

Data set [1] addresses T1, human recombinant V2 vasopressin receptors (Homo sapiens, UniProt P30518).
T1 construct: expressed in transfected cells; host or cells: CHO
Kind of data set: in vitro binding test, displacement of [H3]-AVP from V2 vasopressin receptors. To be noted: CHO membranes, 3.5 nM [H3]-AVP, 45 minutes at 25° C. On the procedure:
The affinity of the compounds of the invention for the V2 vasopressin receptors was measured in in vitro binding tests, as described in J. Pharmacol. Exp. Ther., (2002), 300: pp. 1122-1130.
Plasma membranes (about 20 μg/ml) obtained from CHO tissue or cell line expressing human recombinant V2 vasopressin receptors, are incubated for 45 minutes at 25° C. in 200 μL of TRIS-HCl buffer (50 mM; pH 8.2) containing 2 mM of MgCl2, 1 mM of EDTA, 0.1% of BSA, 1/500 protease inhibitor cocktail (Sigma #P2714) and 3.5 nM of [H3]-AVP. The reaction is stopped by filtration and washing on GF/B filters. Nonspecific binding is determined in the presence of 1 μM of AVP. The compounds of the invention, dissolved beforehand to a concentration of 10^−2 M in DMSO, are tested in a dilution series.
For each concentration the results are expressed as percentage inhibition of specific binding. An IC50 (concentration of product inhibiting 50% of specific binding) is determined for each of the products using the in-house software Biost@t-SPEED v1.3 which employs the 4-parameter logistic model of Ratkovsky and Reedy (1986). Adjustment is obtained by nonlinear regression using Marquardt's algorithm of the SAS v8.2 software running under UNIX.

The target of the next data set is T2, V1b receptors (Homo sapiens, UniProt P47901).
T2 sequence (P47901 1-424): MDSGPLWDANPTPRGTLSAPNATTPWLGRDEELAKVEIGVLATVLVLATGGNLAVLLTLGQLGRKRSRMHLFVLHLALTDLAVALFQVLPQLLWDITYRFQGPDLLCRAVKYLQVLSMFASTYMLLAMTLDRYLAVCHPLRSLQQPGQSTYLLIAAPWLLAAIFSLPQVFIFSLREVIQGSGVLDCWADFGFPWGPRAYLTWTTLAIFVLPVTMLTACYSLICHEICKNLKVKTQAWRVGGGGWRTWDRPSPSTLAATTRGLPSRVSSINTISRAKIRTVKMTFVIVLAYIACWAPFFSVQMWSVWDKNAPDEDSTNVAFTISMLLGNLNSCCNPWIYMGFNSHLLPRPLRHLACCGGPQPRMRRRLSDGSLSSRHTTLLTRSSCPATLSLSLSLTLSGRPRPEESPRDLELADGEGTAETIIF
Kind of data set: affinity for V1b receptors (method of Sugimoto et al.). In kind it is binding. Particulars: for IC50 V1b/IC50 V2: selectivity ratio versus V2. On the procedure:
(§1) The affinity of the compounds of the invention for the Via and V1b vasopressin receptors and the affinity of the compounds of the invention for the oxytocin (OXT) receptors were also tested.
(§2) The affinity of the compounds according to the invention for human Via receptors was determined according to the method described by M. Thibonnier et al. in J. Biol. Chem. 1994, 269, 3304-3310. The affinity of the compounds according to the invention for the V1b receptors was determined according to the method described by T. Sugimoto et al. in J. Biol. Chem. 1994, 269, 27088-27092.

A further data set has as its target V1a receptors (Homo sapiens, UniProt P37288). Kind of data set: affinity for V1a receptors (method of Thibonnier et al.). In kind it is binding. Particulars: for IC50 V1a/IC50 V2: selectivity ratio versus V2. On the procedure: as §1, §2
In another data set the target is T3, human oxytocin receptors (Homo sapiens, UniProt P30559).
T3 sequence (P30559 1-389): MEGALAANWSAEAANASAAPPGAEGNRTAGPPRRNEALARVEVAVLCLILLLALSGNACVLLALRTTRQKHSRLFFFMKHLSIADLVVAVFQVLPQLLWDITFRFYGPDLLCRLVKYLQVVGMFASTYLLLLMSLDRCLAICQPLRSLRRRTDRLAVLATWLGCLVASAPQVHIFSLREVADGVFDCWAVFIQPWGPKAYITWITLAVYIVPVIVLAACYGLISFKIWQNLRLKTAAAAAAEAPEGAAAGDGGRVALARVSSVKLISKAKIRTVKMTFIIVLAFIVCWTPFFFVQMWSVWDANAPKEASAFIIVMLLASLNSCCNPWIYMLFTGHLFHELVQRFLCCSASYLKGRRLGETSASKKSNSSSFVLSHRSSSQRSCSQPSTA
Kind of data set: in vitro binding test, displacement of a radioiodated oxytocin analogue from oxytocin receptors. To be noted: for IC50: membrane preparation of human oxytocin receptors; for IC50 OXT/IC50 V2: selectivity ratio versus V2. On the procedure: as §1
The affinity of the compounds according to the invention for the OXT receptors was determined in an in vitro binding test using the method described by J. Elands et al. in Eur. J. Pharmacol. 1987, 147, 197-207. This method comprises in vitro investigation of the displacement of a radioiodated analogue of oxytocin from the oxytocin receptors in a membrane preparation of human oxytocin receptors.

Sequence of V1a receptors (P37288 whole entry): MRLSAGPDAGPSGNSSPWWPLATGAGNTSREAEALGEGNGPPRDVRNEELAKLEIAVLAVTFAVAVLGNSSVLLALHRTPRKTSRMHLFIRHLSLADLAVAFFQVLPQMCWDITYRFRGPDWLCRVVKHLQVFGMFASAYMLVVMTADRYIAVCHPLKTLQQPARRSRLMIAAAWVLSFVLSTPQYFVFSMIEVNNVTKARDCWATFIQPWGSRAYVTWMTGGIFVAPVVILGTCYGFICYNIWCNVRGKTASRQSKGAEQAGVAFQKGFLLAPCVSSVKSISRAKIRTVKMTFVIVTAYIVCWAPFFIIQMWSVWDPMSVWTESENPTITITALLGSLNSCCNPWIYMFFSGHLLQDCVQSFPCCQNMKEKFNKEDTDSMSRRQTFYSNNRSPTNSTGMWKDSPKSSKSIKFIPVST
T1 sequence (P30518 whole entry): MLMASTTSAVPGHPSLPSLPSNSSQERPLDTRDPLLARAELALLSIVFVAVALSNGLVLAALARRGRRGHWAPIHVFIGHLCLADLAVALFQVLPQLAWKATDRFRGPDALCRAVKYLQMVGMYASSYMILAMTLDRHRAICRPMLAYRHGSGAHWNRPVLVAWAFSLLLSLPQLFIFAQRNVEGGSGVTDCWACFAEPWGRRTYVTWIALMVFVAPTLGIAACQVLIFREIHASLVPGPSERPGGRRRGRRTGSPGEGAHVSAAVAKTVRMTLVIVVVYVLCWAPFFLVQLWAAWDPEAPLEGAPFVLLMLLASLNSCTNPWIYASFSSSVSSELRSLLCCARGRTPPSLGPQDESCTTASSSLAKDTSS

For `CCOc1ccc2c(c1)C(C)(c1cc(C(=O)NCCN)ccc1Cl)C(=O)N2S(=O)(=O)c1ccc(C(=O)NC(C)(C)C)cc1OC` (centres unmarked) (as salt: hydrochloride) [Example 47, N-tert-Butyl-4-{3-[2-chloro-5-(2-aminoethylamino-carbonyl)-phenyl]-5-ethoxy-3-methyl-2-oxo-2,3-dihydro-indole-1-sulphonyl}-3-methoxy-benzamide], the melting point was found to be 204 °C.
For the compound `CCOc1ccc2c(c1)C(C)(c1ccccc1Cl)C(=O)N2S(=O)(=O)c1ccc(C(=O)NC(C)(C)C)cc1` (single isomer, unassigned) [Example 12, N-tert-butyl-4-[3-(2-chlorophenyl)-5-ethoxy-3-methyl-2-oxo-2,3-dihydroindole-1-sulphonyl]benzamide], the melting point came out at 153 °C. In addition, in data set [1], the IC50 turned out to be 0.0019 µM. In addition, at V1b receptors, the IC50 was greater than 1 µM and the “IC50 V1b/IC50 V2” value is on record as greater than 100. Besides, on V1a receptors, the midpoint of inhibition, the IC50, lay at 0.45 µM and the “IC50 V1a/IC50 V2” value was greater than 100. Further, at human oxytocin receptors, the IC50 stood at 0.14 µM and the “IC50 OXT/IC50 V2” value is on record as 74.
`CCOc1ccc2c(c1)C(C)(c1cc(C(=O)N[C@@H]3CCNC3)ccc1Cl)C(=O)N2S(=O)(=O)c1ccc(C(=O)NC(C)(C)C)cc1OC` (single isomer, unassigned) [Example 43]: the melting point was determined as 216 °C. Further, the concentration for half-maximal inhibition (IC50) in data set [1] was found to be 0.0013 µM. At V1b receptors, the IC50 is greater than 1 µM and the “IC50 V1b/IC50 V2” value is reported as greater than 100. Further, on V1a receptors, it took 0.73 µM to reach half-maximal inhibition (IC50) and the “IC50 V1a/IC50 V2” value is greater than 100. In addition, on human oxytocin receptors, the IC50 stood at 0.7 µM and the “IC50 OXT/IC50 V2” value is reported as greater than 100.
`CCOc1ccc2c(c1)C(C)(c1ccccc1)C(=O)N2S(=O)(=O)c1ccc(C(=O)NC(C)(C)C)cc1OC` (single isomer, unassigned) [Example 99, N-tert-butyl-3-methoxy-4-[3-methyl-3-phenyl-5-ethoxy-2-oxo-2,3-dihydroindole-1-sulphonyl]benzamide] came in with a melting point of 148 °C. Further, in data set [1], the half-inhibitory concentration (IC50) was determined as 0.001 µM. In addition, at V1b receptors, the IC50 was greater than 1 µM and the “IC50 V1b/IC50 V2” value is listed as greater than 100. For the same compound, on V1a receptors, half-maximal inhibition (IC50) was put at 0.26 µM and the “IC50 V1a/IC50 V2” value is reported as greater than 100. At human oxytocin receptors, the IC50 was determined as 0.7 µM and the “IC50 OXT/IC50 V2” value is greater than 100.
`CCOc1ccc2c(c1)C(C)(c1ccccc1Cl)C(=O)N2S(=O)(=O)c1ccc(C(=O)NC(C)(C)CC)cc1` (centres unmarked) [Example 4, 4-[3-(2-Chloro-phenyl)-5-ethoxy-3-methyl-2-oxo-2,3-dihydro-indole-1-sulphonyl]-N-(1,1-dimethyl-propyl)-benzamide] registered a melting point of 138 °C.
Compound `CCOc1ccc2c(c1)C(C)(c1cc(C(=O)O)ccc1Cl)C(=O)N2S(=O)(=O)c1ccc(C(=O)NC(C)(C)C)cc1OC` (centres unmarked) [Example 19, 3-[1-(4-tert-Butylcarbamoyl-2-methoxy-benzenesulphonyl)-5-ethoxy-3-methyl-2-oxo-2,3-dihydro-1H-indol-3-yl]-4-chloro-benzoic acid] displayed a melting point of 200 °C.
`CCNC(=O)c1ccc(Cl)c(C2(C)C(=O)N(S(=O)(=O)c3ccc(C(=O)NC(C)(C)C)cc3OC)c3ccc(OCC)cc32)c1` (centres unmarked) [Example 21, 4-chloro-3-[1-(4-tert-butylcarbamoyl-2-methoxybenzenesulphonyl)-5-ethoxy-3-methyl-2-oxo-2,3-dihydro-1H-indol-3-yl]-N-ethylbenzamide]: the melting point is 176 °C. Also, the IC50 in data set [1] turned out to be 0.003 µM. At V1b receptors, the IC50 was greater than 1 µM and the “IC50 V1b/IC50 V2” value is reported as greater than 100. Besides, at V1a receptors, the IC50 is 0.34 µM and the “IC50 V1a/IC50 V2” value is reported as greater than 100. Also, at human oxytocin receptors, the IC50 is greater than 1 µM and the “IC50 OXT/IC50 V2” value is greater than 100.
As for `CCOc1ccc2c(c1)C(C)(c1cc(C(=O)N3CC4CCN(C)C4C3)ccc1Cl)C(=O)N2S(=O)(=O)c1ccc(C(=O)NC(C)(C)C)cc1OC` (centres unmarked) [Example 46, N-tert-Butyl-4-{3-[2-chloro-5-(1-methyl-hexahydro-pyrrolo[3,4-b]pyrrole-5-carbonyl)-phenyl]-5-ethoxy-3-methyl-2-oxo-2,3-dihydro-indole-1-sulphonyl}-3-methoxy-benzamide], the melting point amounted to 130 °C.
`CCOc1ccc2c(c1)C(C)(c1cc(C(=O)O)ccc1Cl)C(=O)N2S(=O)(=O)c1ccc(C(=O)NC(C)(C)C)cc1` (centres unmarked) [Example 48, 3-[1-(4-tert-Butylcarbamoyl-benzenesulphonyl)-5-ethoxy-3-methyl-2-oxo-2,3-dihydro-1H-indol-3-yl]-4-chloro-benzoic acid] displayed a melting point of 188 °C.
Still for that read-out and setting: next, `CCOc1ccc2c(c1)C(C)(c1cc(N)ccc1Cl)C(=O)N2S(=O)(=O)c1ccc(C(=O)NC(C)(C)C)cc1OC` (centres unmarked) [Example 55, 4-[3-(5-Amino-2-chloro-phenyl)-5-ethoxy-3-methyl-2-oxo-2,3-dihydro-indole-1-sulphonyl]-N-tert-butyl-3-methoxy-benzamide]: 166 °C; `CCOc1ccc2c(c1)C(C)(c1ccccc1)C(=O)N2S(=O)(=O)c1ccc(C(=O)NC(C)(C)C)cc1` (centres unmarked) [Example 98, N-tert-butyl-4-[3-methyl-3-phenyl-5-ethoxy-2-oxo-2,3-dihydroindole-1-sulphonyl]-benzamide]: 89 °C; `CCOc1ccc2c(c1)C(C)(c1ccccc1F)C(=O)N2S(=O)(=O)c1ccc(C(=O)NC(C)(C)C)cc1` (centres unmarked) [Example 101, N-tert-butyl-4-[3-methyl-3-(2-fluorophenyl)-5-ethoxy-2-oxo-2,3-dihydroindole-1-sulphonyl]benzamide]: 116 °C.
Same read-out and setting: to `CCOc1ccc2c(c1)C(C)(c1cccc(OC)c1)C(=O)N2S(=O)(=O)c1ccc(C(=O)NC(C)(C)C)cc1` (centres unmarked) [Example 103, N-tert-butyl-4-[3-(3-methoxyphenyl)-5-ethoxy-3-methyl-2-oxo-2,3-dihydroindole-1-sulphonyl]benzamide] belongs 101 °C.
The same measure, in the same setting: to `CCOc1ccc2c(c1)C(C)(c1c(F)cccc1Cl)C(=O)N2S(=O)(=O)c1ccc(C(=O)NC(C)(C)C)cc1` (centres unmarked) [Example 125, N-tert-butyl-4-[3-methyl-3-(2-chloro-6-fluorophenyl)-5-ethoxy-2-oxo-2,3-dihydro-indole-1-sulphonyl]benzamide] belongs 128 °C; to `CC(C)(C)NC(=O)c1ccc(S(=O)(=O)N2C(=O)C(C)(c3ccccc3Cl)c3cc(OCC(F)(F)F)ccc32)cc1` (centres unmarked) [Example 143, N-tert-Butyl-4-[3-(2-chlorophenyl)-3-methyl-2-oxo-5-(2,2,2-trifluoroethoxy)-2,3-di-hydroindole-1-sulphonyl]benzamide], 134 °C; to `CCOc1ccc2c(c1)C(C)(c1cccc(OCCCN(C)C)c1)C(=O)N2S(=O)(=O)c1ccc(C(=O)NC(C)(C)C)cc1` (centres unmarked) [Example 145, N-tert-Butyl-4-{3-[3-(3-dimethylaminopropoxy)phenyl]-5-ethoxy-3-methyl-2-oxo-2,3-dihydroindole-1-sulphonyl}benzamide], 86 °C.

What is called melting point is the temperature of the solid-liquid transition. The IC50 is the concentration that gives 50% inhibition.

Values taken from patent US20100069384A1, “5-ALKYLOXY-INDOLIN-2-ONE DERIVATIVES, PREPARATION THEREOF AND APPLICATION THEREOF IN THERAPY” (SANOFI-AVENTIS, priority 2006, published 2010).
